# Data: article PMC6099615, “Anti-glycation, Carbonyl Trapping and Anti-inflammatory Activities of Chrysin Derivatives” (Molecules : A Journal of Synthetic Chemistry and Natural …, 2018)
# Counter-ions that a name gives are not always drawn. Like-named read-outs stand apart in the source and are kept apart here. Marks after values point to notes of the source that are not given here.
# Assays:
# [1] = Water solubility analysis; assay type: physicochemical; settings: thermodynamic from solid; distilled water, 37 °C, sonication 1 h
# Protocol: CS and derivatives were dissolved in distilled water and incubated at 37 °C with sonication for 1 h to maximize solubility. After sonication, undissolved samples were eliminated by centrifugation (7000× g, 37 °C, 5 min). The supernatants were diluted in methanol and filtered through a 0.45 μm disposable syringe filter (Advantec, Dublin, CA, USA) to analyze the concentration of the samples using HPLC analysis.
# [2] = system: AGE formation; assay: Bovine serum albumin-methylglyoxal assay on AGE formation; assay type: biochemical; settings: for IC50: BSA-methylglyoxal, 37 °C, 48 h
# Protocol: Bovine serum albumin (50 mg/mL) was incubated at 37 °C for 48 h with methylglyoxal (100 mM) in sodium phosphate buffer (0.1 M, pH 7.4) containing 0.2 g/L NaN3 in the presence of various concentrations of the compounds (including a control).
# (§1) This test was used to evaluate the ability of samples to inhibit cross-linking of the GK peptide in the presence of D-ribose using the method described by Hwang et al. The GK peptide (26.7 mg/mL) was incubated with D-ribose (200 mg/mL) in sodium phosphate buffer (0.5 M, pH 7.4) containing 0.2 g/L NaN3 under sterile conditions at 37 °C for 72 h. […] All reagents and samples were sterilized by filtration through […] membrane filters. The fluorescence intensity was measured at an excitation wavelength of 355 nm and an emission wavelength of 460 nm with a Luminescence spectrometer LS50B (Perkin-Elmer Ltd., Buckinghamshire, England). AG was used as a positive control.
# [3] = system: Amadori compound formation; assay: Hemoglobin-δ-gluconolactone assay of Amadori compound formation; assay type: biochemical; settings: for IC50: early stage of AGE formation
# [4] = system: AGEs cross-linking; assay: N-acetyl-glycyl-lysine-methyl ester D-ribose assay on AGE cross-linking; assay type: biochemical; settings: for IC50: GK peptide-D-ribose, 37 °C, 72 h
# Protocol: as §1
# [5] = MGO trapping capacity by HPLC (kinetic study of MGO-conjugated adducts)
# Protocol: […] The incubated mixture was filtered using a Microcon YM-10 centrifugal filter unit by centrifugation at 5167× g for 30 min at 4 °C. The filtrate was subsequently analyzed by high-performance liquid chromatography (HPLC) using the methods mentioned in the HPLC analysis section. The samples were then stored at −80 °C for further use.
# HPLC was performed on an Agilent1100 series system equipped with a diode-array detector (DAD; Agilent, Sunnyvale, CA, USA) consisting of a vacuum degasser (G1322A), a quaternary pump (G1311A), an auto-sampler (G1313A), a thermostat column compartment (G1316A), and a DAD (G1315B). […] Sample injection volume was 10 μL. The samples were eluted with acidified water (0.1% trifluoroacetic acid, A) and MeOH (B) at a flow rate of 0.7 mL/min. The optimized gradient chromatographic conditions were 5–100% B at 0–40 min; 100–5% B at 40–42 min; and isocratic 5% B at 42–45 min. The detector monitored the eluent at a wavelength of 280 nm.
# [6] = cited from earlier work
# [7] = chrysin:MGO 1:0.1, incubation 1 h
# [8] = chrysin:MGO 1:0.1, incubation 3 h
# [9] = chrysin:MGO 1:0.1, incubation 6 h
# [10] = chrysin:MGO 1:0.1, incubation 12 h
# [11] = chrysin:MGO 1:0.1, incubation 36 h
# [12] = chrysin:MGO 1:0.1, incubation 48 h
# [13] = chrysin:MGO 1:0.5, incubation 1 h
# [14] = chrysin:MGO 1:0.5, incubation 3 h
# [15] = chrysin:MGO 1:0.5, incubation 6 h
# [16] = chrysin:MGO 1:0.5, incubation 12 h
# [17] = chrysin:MGO 1:0.5, incubation 36 h
# [18] = chrysin:MGO 1:0.5, incubation 48 h
# [19] = chrysin:MGO 1:1, incubation 1 h
# [20] = chrysin:MGO 1:1, incubation 3 h
# [21] = chrysin:MGO 1:1, incubation 6 h
# [22] = chrysin:MGO 1:1, incubation 12 h
# [23] = chrysin:MGO 1:1, incubation 36 h
# [24] = chrysin:MGO 1:1, incubation 48 h
# [25] = chrysin:MGO 1:5, incubation 1 h
# [26] = chrysin:MGO 1:5, incubation 3 h
# [27] = chrysin:MGO 1:5, incubation 6 h
# [28] = chrysin:MGO 1:5, incubation 12 h
# [29] = chrysin:MGO 1:5, incubation 36 h
# [30] = chrysin:MGO 1:5, incubation 48 h
# [31] = chrysin:MGO 1:10, incubation 1 h
# [32] = chrysin:MGO 1:10, incubation 3 h
# [33] = chrysin:MGO 1:10, incubation 6 h
# [34] = chrysin:MGO 1:10, incubation 12 h
# [35] = chrysin:MGO 1:10, incubation 12 h, listed as CS
# [36] = chrysin:MGO 1:10, incubation 36 h
# [37] = chrysin:MGO 1:10, incubation 48 h
# [38] = chrysin:MGO 1:10, incubation 48 h, listed as CS
# [39] = chrysin:MGO 1:10, incubation 48 h, listed as chrysin
smiles,measurement,setting,value
"CC(C)=CCOc1cc(O)c2c(=O)cc(-c3ccccc3)oc2c1 [7-O-Prenylchrysin, 7-O-prenylchrysin]",solubility at 1 h,[1],9 µM
"N=C(N)NN [Aminoguanidine, Aminoguanidine hydrochloride, reference compound]",IC50,[2],137 µM
same,IC50,[3],110 µM
same,IC50,[4],1900 µM
"O=c1cc(-c2ccccc2)oc2cc(O)cc(O)c12 [Chrysin, 5,7-dihydroxyflavone]",HPLC area percentage of chrysin-di-MGO adduct,[5]; [7],0.0%
same,HPLC area percentage of chrysin-mono-MGO adduct,[5]; [7],1.7%
same,HPLC area percentage of chrysin-di-MGO adduct,[5]; [8],0.1%
same,HPLC area percentage of chrysin-mono-MGO adduct,[5]; [8],2.9%
same,HPLC area percentage of chrysin-di-MGO adduct,[5]; [9],0.1%
same,HPLC area percentage of chrysin-mono-MGO adduct,[5]; [9],4.0%
same,HPLC area percentage of chrysin-di-MGO adduct,[5]; [10],0.2%
same,HPLC area percentage of chrysin-mono-MGO adduct,[5]; [10],7.6%
same,HPLC area percentage of chrysin-mono-MGO adduct,"[5]; chrysin:MGO 1:0.1, incubation 12 h, listed as CS",8%
same,HPLC area percentage of chrysin-di-MGO adduct,[5]; [11],1.1%
same,HPLC area percentage of chrysin-mono-MGO adduct,[5]; [11],19.9%
same,HPLC area percentage of chrysin-di-MGO adduct,[5]; [12],2.9%
same,HPLC area percentage of chrysin-mono-MGO adduct,[5]; [12],27.2%
same,HPLC area percentage of chrysin-di-MGO adduct,[5]; [13],0.0%
same,HPLC area percentage of chrysin-mono-MGO adduct,[5]; [13],4.1%
same,HPLC area percentage of chrysin-di-MGO adduct,[5]; [14],0.2%
same,HPLC area percentage of chrysin-mono-MGO adduct,[5]; [14],7.7%
same,HPLC area percentage of chrysin-di-MGO adduct,[5]; [15],0.5%
same,HPLC area percentage of chrysin-mono-MGO adduct,[5]; [15],13.1%
same,HPLC area percentage of chrysin-di-MGO adduct,[5]; [16],1.1%
same,HPLC area percentage of chrysin-mono-MGO adduct,[5]; [16],21.4%
same,HPLC area percentage of chrysin-mono-MGO adduct,"[5]; chrysin:MGO 1:0.5, incubation 12 h, listed as CS",21%
same,HPLC area percentage of chrysin-di-MGO adduct,[5]; [17],4.1%
same,HPLC area percentage of chrysin-mono-MGO adduct,[5]; [17],36.5%
same,HPLC area percentage of chrysin-di-MGO adduct,[5]; [18],7.6%
same,HPLC area percentage of chrysin-mono-MGO adduct,[5]; [18],45.8%
same,HPLC area percentage of chrysin-di-MGO adduct,[5]; [19],0.1%
same,HPLC area percentage of chrysin-mono-MGO adduct,[5]; [19],5.0%
same,HPLC area percentage of chrysin-di-MGO adduct,[5]; [20],0.3%
same,HPLC area percentage of chrysin-mono-MGO adduct,[5]; [20],10.8%
same,HPLC area percentage of chrysin-di-MGO adduct,[5]; [21],0.7%
same,HPLC area percentage of chrysin-mono-MGO adduct,[5]; [21],18.1%
same,HPLC area percentage of chrysin-di-MGO adduct,[5]; [22],1.5%
same,HPLC area percentage of chrysin-mono-MGO adduct,[5]; [22],29.5%
same,HPLC area percentage of chrysin-mono-MGO adduct,"[5]; chrysin:MGO 1:1, incubation 12 h, listed as CS",30%
same,HPLC area percentage of chrysin-di-MGO adduct,[5]; [23],6.4%
same,HPLC area percentage of chrysin-mono-MGO adduct,[5]; [23],45.1%
same,HPLC area percentage of chrysin-di-MGO adduct,[5]; [24],11.6%
same,HPLC area percentage of chrysin-mono-MGO adduct,[5]; [24],55.0%
same,HPLC area percentage of chrysin-di-MGO adduct,[5]; [25],0.3%
same,HPLC area percentage of chrysin-mono-MGO adduct,[5]; [25],12.4%
same,HPLC area percentage of chrysin-di-MGO adduct,[5]; [26],0.8%
same,HPLC area percentage of chrysin-mono-MGO adduct,[5]; [26],19.0%
same,HPLC area percentage of chrysin-di-MGO adduct,[5]; [27],1.7%
same,HPLC area percentage of chrysin-mono-MGO adduct,[5]; [27],26.7%
same,HPLC area percentage of chrysin-di-MGO adduct,[5]; [28],3.6%
same,HPLC area percentage of chrysin-mono-MGO adduct,[5]; [28],35.6%
same,HPLC area percentage of chrysin-mono-MGO adduct,"[5]; chrysin:MGO 1:5, incubation 12 h, listed as CS",36%
same,HPLC area percentage of chrysin-di-MGO adduct,[5]; [29],15.9%
same,HPLC area percentage of chrysin-mono-MGO adduct,[5]; [29],49.1%
same,HPLC area percentage of chrysin-di-MGO adduct,[5]; [30],25.2%
same,HPLC area percentage of chrysin-mono-MGO adduct,[5]; [30],57.5%
same,HPLC area percentage of chrysin-di-MGO adduct,[5]; [31],0.5%
same,HPLC area percentage of chrysin-mono-MGO adduct,[5]; [31],11.9 ^a %
same,HPLC area percentage of chrysin-di-MGO adduct,[5]; [32],1.0%
same,HPLC area percentage of chrysin-mono-MGO adduct,[5]; [32],21.0%
same,HPLC area percentage of chrysin-di-MGO adduct,[5]; [33],1.9%
same,HPLC area percentage of chrysin-mono-MGO adduct,[5]; [33],31.9%
same,HPLC area percentage of chrysin-di-MGO adduct,[5]; [34],5.7%
same,HPLC area percentage of chrysin-mono-MGO adduct,[5]; [34],42.1%
same,HPLC area percentage of chrysin-di-MGO adduct,[5]; [35],6%
same,HPLC area percentage of chrysin-mono-MGO adduct,[5]; [35],42%
same,HPLC area percentage of chrysin-di-MGO adduct,[5]; [36],17.3%
same,HPLC area percentage of chrysin-mono-MGO adduct,[5]; [36],57.4%
same,HPLC area percentage of chrysin-di-MGO adduct,[5]; [37],29.7%
same,HPLC area percentage of chrysin-mono-MGO adduct,[5]; [37],63.9%
same,HPLC area percentage of chrysin-di-MGO adduct,[5]; [38],30%
same,HPLC area percentage of chrysin-mono-MGO adduct,[5]; [38],64%
same,HPLC area percentage of chrysin-di-MGO adduct,[5]; [39],29.69%
same,HPLC area percentage of chrysin-mono-MGO adduct,[5]; [39],63.86%
same,CS–di MGO adduct formation across ratios,[5]; ratios shown in Table 2B,0.2–3%
same,IC50,[2],25 µM
same,"activity against AGE formation, fold higher than AG",[2]; relative to AG (IC50 = 136.79 μM),5.48 fold
same,IC50,[3],17.4 µM
same,"inhibitory activity on Amadori compound formation, fold higher than positive control AG",[3]; relative to Aminoguanidine hydrochloride (IC50 = 109.74 μM),6.30 fold
same,solubility at 1 h,[1],30 µM
same,IC50,[4],> 2000 µM
same,inhibitory activity against AGEs cross-linking,[4]; at a concentration of 10.0 mg/mL,no inhibitory activities
C[N+](C)(C)C[C@H](O)CC(=O)[O-] [L-carnitine],bioavailability,[6]; oral administration,14–18%
CC(=O)O[C@H](CC(=O)[O-])C[N+](C)(C)C [acetyl-L-carnitine],bioavailability,"[6]; in vivo, po",43%
